Data on nine compounds can be found in ChEMBL document CHEMBL1201862, “PubChem BioAssay data set” (2004).

Calls of active or inactive are those of the source.

The nature of assay [1]: viability loss in THP-1 monocytes – THP-1 cells, cytotoxicity control for Vif-APOBEC3G degradation inhibitor project, dose response (AID 1117359). The assay is classed as functional. To be noted: THP-1.
Assay [2] is described as follows: alpha-synuclein stem-loop luciferase translation blockers – H4 neuroglioma cells, luminescence, confirmation (AID 1988). Type of assay: functional, cell-based.
Assay [3] is described as follows: Luminescence Cell-Based Dose Retest to Confirm Inhibitors of Cancer Stem Cells. [Related pubchem assays (depositor defined):AID2717, AID2721]. The assay is classed as functional. The following applies: Homo sapiens.
The nature of assay [4]: blockers of HIV-1 ZM109 envelope-driven cell-cell fusion – HeLa effector, CEM target cells, luciferase, cherry-pick, dose response (AID 652058).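 Note: luciferase signal from HIV-1 Env mediated cell-cell fusion of effector and target cells.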 Type of assay: functional, cell-based.
Assay [5] is described as follows: reduction of Shn3 3'UTR-driven luciferase in osteoblasts – cell-based, Clone20 osteoblasts, firefly luciferase, cherry-picked, dose response (AID 624132).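 Note: firefly luciferase luminescence from reporter carrying the Shn3 3'UTR in osteoblasts.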 The assay is classed as functional.
The nature of assay [6]: luciferase reporter signal suppression in cells – H4 neuroglioma cells, luminescence, dose response (AID 1990). Type of assay: functional, cell-based.
A short description of assay [7]: Luminescence Cell-Based Dose Response HTS to Identify Inhibitors of 5'UTR Stem-Loop Driven Prion Protein mRNA Translation in H4 Neuroglioblastoma Cells. [Related pubchem assays: 1827 (Project Summary), 1813 (Primary HTS)]. The assay is classed as functional.
Assay [8] can be described thus: viability loss in CEM21 cells – cell-based, CellTiter-Glo luminescence, cherry-picked, cytotoxicity control for viral fusion inhibitor project, dose response (AID 652042).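 Note: potency for signal decrease meaning cytotoxicity.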 The assay is classed as functional. (In general: ATP-based viability assays read luminescence as a measure of living cells.)
Assay [9] is described as follows: blockers of HIV-1 envelope-mediated cell-cell fusion – cherry-pick, dose response (AID 652057). The assay is classed as functional, cell-based.
The nature of assay [10]: non-specific 3'UTR reporter inhibition in Clone20-Shn3RL – cell-based, Renilla luciferase, cherry-picked, counter-screen for Shn3 inhibitor project, dose response (AID 624133). Type of assay: functional. A general note: A counterscreen serves to expose hits that act by an unwanted route or on another target.
Assay [11] can be described thus: off-target signal loss in HeLa-CEM21 co-culture – HeLa F-luc CTL cells, cherry-picked, counter-screen for HIV-1 Env fusion inhibitor project, dose response (AID 652040).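 Note: potency for signal decrease marking cytotoxic or nonspecific inhibition.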 Type of assay: functional, cell-based.
Assay [12] can be described thus: HIV-1 AD8 envelope cell-cell fusion blockers – cherry-pick, dose response (AID 652062).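 Note: luciferase signal from cell-cell fusion driven by HIV-1 clade B AD8 Env; potency is for inhibitors of fusion seen as a drop in luminescence.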 Type of assay: functional, cell-based.
Assay [13] is described as follows: loss of viability in HepG2 cells – cell-based, CellTiter-Glo, cherry-picked, cytotoxicity control for Shn3 inhibitor project, dose response (AID 624134). Type of assay: functional.
The target in assay [14] is Prothrombin (Homo sapiens, UniProt P00734). The assay is described as follows: Thrombin 1536 HTS Dose Response Confirmation. [Related pubchem assays: 1046 (Thrombin 1536 HTS; hits were confirmed in this assay)]. The assay is classed as functional.
The nature of assay [15]: cells. The assay is classed as functional, cell-based.
Assay [16] in a line: cells. The assay is classed as functional, cell-based. This is another data set of the same source.
Assay [17] can be described thus: THP-1 cell cytotoxicity, dose response, cytotoxicity control for non-replicating M. tuberculosis project (AID 489025). Type of assay: functional.
The nature of assay [18]: cells. The assay is classed as functional.
Assay [19] is described as follows: toxicity to human hepatoma HepG2 cells – cell-based, cherry-picked samples, cytotoxicity control, dose response (AID 1159577). Type of assay: functional.
Assay [20] in a line: P. falciparum Dd2 growth inhibitors, dose response, SYBR Green, cherry-picked samples (AID 1159567). The assay is classed as functional, cell-based.
Assay [21] can be described thus: reduced cellular PGC1a acetyl-lysine signal – cell-based, cherry-picked samples, dose response (AID 720514).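 Note: potency may reflect raised or lowered acetylation signal.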 The assay is classed as functional.
Assay [22] can be described thus: Luminescence Cell-Based Dose Response HTS to Identify Activators of Luciferase Translation or Activity in H4 […] Cells. [Related pubchem assays: 1829 (Project Summary), 1814 (Primary HTS)]. Type of assay: functional.
Assay [23] relates to H4. The assay is described as follows: Luminescence Cell-Based Dose Response HTS to Identify Activators of 5'UTR Stem-Loop Driven Prion Protein mRNA Translation in H4 Neuroglioblastoma Cells. [Related pubchem assays: 1829 (Project Summary), 1814 (Primary HTS)]. Type of assay: functional. The following applies: Homo sapiens.

In general, CC50 refers to the concentration at which the toxic effect on the cells reaches its halfway point. On to `CC(C(=O)NCC1CCCCC1)N(C)Cc1ccc(Br)cc1` (stereo unspecified), for which, in [1], the CC50 is > 40 µM (active).

As a reminder, the EC50 is the midpoint of the concentration-response curve. Broadly, the AC50 is the concentration giving half of the maximal activity seen. On to `Fc1ccc(C(OCCN2CCN(CCCc3ccccc3)CC2)c2ccc(F)cc2)cc1`, for which the figures for the EC50 in [2], in assay [6] and in assay [7] were > 120 µM (not active), 9.61 µM (active) and > 120 µM (not active), respectively. In addition, the AC50 in assay [3] is 3.05 µM (active); in [4], 8.74 µM (active); in assay [5], 6.17 µM (active); in assay [8], 14.5 µM (active); in assay [9], 8.27 µM (active); in assay [10], 8.11 µM (active). Also, the half-maximal activity concentration (AC50) in assay [11] was 13 µM (active); in [12], 12.3 µM (active); in assay [13], 38.8 µM (active).

A word on the IC50: it is the concentration at which inhibition is half-maximal. In the case of `O=C(Cn1nc(C(F)F)cc1C(F)F)NNC(=S)Nc1ccc(F)cc1`, the 50% inhibitory concentration (IC50) in [14] was > 50 µM (not active).

As to `O=C(Cc1ccccc1)n1nc(-c2ccccc2)nc1NCc1ccco1`, in assay [14], the IC50 was 0.1 µM (active).

With `CC(C)(C)CN1CCNC(=O)C1CC(=O)NCCc1ccccc1F` (stereo unspecified), in assay [15], the EC50 is > 29.9 µM (inactive). Moreover, in assay [16], the IC50 is > 29.9 µM (inactive).

Regarding `c1ccc(CNCCC(Cc2ccccc2)c2ccco2)cc1` (stereo unspecified), the 50% cytotoxic concentration (CC50) in [17] was > 40 µM (active). The IC50 in assay [18] is > 50 µM (active).

In the case of `OC[C@@H]1[C@H](c2ccc(C#CC3CCCC3)cc2)[C@H]2CN(CCC(F)(F)F)CCCCN12`, the AC50 is 9.12 µM (active) in [19], 1.43 µM (active) in assay [20] and 10.4 µM (active) in assay [21].

Consider `O=C1c2ccccc2-[n+]2ccc3c([nH]c4ccccc43)c21` [FASCAPLYSIN], for which the AC50 in [21] is 0.358 µM (active).

Turning to `CCCCn1nnc(N(C(=O)c2cccs2)C(=O)c2cccs2)n1`, the IC50 in assay [14] was 0.88 µM (active). For the same compound, the EC50 in assay [22] was 12.6 µM (active); in assay [23], > 120 µM (not active).
